Results published in publication PMC5041131, “Bacteroides intestinalis DSM 17393, a member of the human colonic microbiome, upregulates multiple endoxylanases during growth on xylan” (Scientific Reports, 2016).

Molecular target: T1, BiXyl43A (Bacteroides intestinalis, UniProt B3CES2)
T1 construct: gene BACINT_04203; GH43 module without signal peptide; N-terminal 6His tag (pET-46 Ek/LIC), E. coli BL21-CodonPlus(DE3)-RIL; IMAC and size exclusion
T1 sequence (B3CES2 1-325): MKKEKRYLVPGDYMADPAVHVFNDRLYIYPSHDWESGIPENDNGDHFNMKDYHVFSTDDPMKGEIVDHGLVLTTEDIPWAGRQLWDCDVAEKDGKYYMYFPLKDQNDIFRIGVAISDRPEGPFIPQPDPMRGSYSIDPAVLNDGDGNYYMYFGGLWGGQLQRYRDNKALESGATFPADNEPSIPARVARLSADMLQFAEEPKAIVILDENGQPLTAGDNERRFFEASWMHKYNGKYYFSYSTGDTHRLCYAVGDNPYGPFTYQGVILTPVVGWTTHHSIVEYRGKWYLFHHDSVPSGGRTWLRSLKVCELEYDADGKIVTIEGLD
Experiment: HPAEC-PAD of hydrolysis products
Assay type: biochemical
Conditions: pH […] sodium phosphate, […] NaCl, […] °C, […] min; […] substrate, […] enzyme

Structure (SMILES)	HPAEC-PAD of hydrolysis products
OC1OC[C@@H](O[C@@H]2OC[C@@H](O[C@@H]3OC[C@@H](O)[C@H](O)[C@H]3O)[C@H](O)[C@H]2O)[C@H](O)[C@H]1O (some centres unmarked) [X3, xylotriose]	BiXyl43A against xylo-oligosaccharides (xylobiose, X2; xylotriose, X3; xylotetraose, X4
OC1OC[C@@H](O[C@@H]2OC[C@@H](O)[C@H](O)[C@H]2O)[C@H](O)[C@H]1O (some centres unmarked) [X2, xylobiose]	xylo-oligosaccharides ranging from xylobiose to xylohexaose led to cleavage or hydrolysis to their unit sugar
